# Columns and labels:
# RM1 tumor = RM1 tumor growth in C57Bl/6 mice (LOFU, 17AAG); type: in vivo, mouse; conditions: for tumor volume: intraperitoneal, three times a week, untreated tumor 1879±98.65 mm^3
# Description: (§1) This protocol yielded an approximate in situ spatial-peak temporal-average acoustic intensity of 270 W/cm^2, resulting in estimated average infra-tumoral temperature elevation of 3.2° C. Post-treatment, there were no signs of normal tissue toxicity such as alopecia, thermal damage, or skin wounds. […] Control mice were injected with equal volume of the vehicle DMSO, which was used to solubilize 17AAG.
# (§2) Tumor model and treatment; C57Bl/6 and BalbC nu/nu mice were injected subcutaneously with 1×10^5 RM-1 (murine prostate cancer cell line) and 1×10^6 PC3 (human prostate cancer cell line) cells on the flank, respectively. Approximately 10 days later, the tumor became palpable (3-5 mm in diameter), whereupon LOFU treatment was initiated. […] Palpable tumors were treated with LOFU every 3-4 days for five fractions administered over two weeks. Animals received 17AAG three times a week during this time. Tumor volume measurements were performed twice weekly using Vernier calipers along with simultaneous physical assessment of signs of systemic toxicity (malaise and diarrhea).
# [1] = Toxicity and dose finding of 17AAG in mice; type: in vivo, mouse
# Description: as §1
# Thus, these dose levels were selected for the current study. The goal was to combine two therapies that are nontoxic, albeit subtherapeutic, and examine whether the combination can be therapeutic. […] To detect the level of ER stress, the expression levels of ER chaperones, ERp44, ERp57, and ERp72 were quantitated among different treatment groups. ERp44 is responsible for oxidative protein folding. ERp57 is an ER resident thiol disulfide oxidoreductase while Erp72 is a disulfide isomerase. All these proteins participate in the protein folding machinery of the ER.
# as §2
# Kaplan-Meier Survival analysis: Mice survival/mortality in different treatment groups was analyzed by Kaplan-Meier as a function of radiation dose using Sigma-Plot and GraphPad Prism (version 4.0 for OS X, San Diego, CA, USA) software.
# [2] = tested on: human hepatocellular carcinoma cell lines (HepG2, Hep3B, Huh7); assay: Cell growth and cell death of human HCC cell lines (LOFU, WP1066); type: cell-based; conditions: WP1066 added prior LOFU treatment
# TPSA23 tumor cells = assay: Clonogenic assay, TPSA23; type: cell-based, murine
compound,measurement,setting,value
"C=CCNC1=C2C[C@@H](C)C[C@H](OC)[C@H](O)[C@@H](C)/C=C(\C)[C@H](OC(N)=O)[C@@H](OC)/C=C\C=C(/C)C(=O)NC(=CC1=O)C2=O [17AAG, 17-N-allylamino-17-demethoxygeldanamycinan]",average estimated tumor growth slower compared to control group,RM1 tumor; 17AAG 25 mg/kg body weight,9%
same,interval within which all animals achieved tumor size 2000 mm^3,RM1 tumor; 17AAG 25 mg/kg body weight,26 to 30 days
same,tumor volume,RM1 tumor; 17AAG 50 mg/kg b.w.,964 mm3
same,tumor volume,RM1 tumor; 17AAG 75 mg/kg b.w.,485±24.25 mm3
same,death of mice (Kaplan Meier survival analysis),"[1]; 75 mg/kg of body weight, after 21 days of treatment, C57Bl/6 mice",50%
same,low dose found to be nontoxic,[1]; Balb/c nude mice,14 mg/kg
same,low dose found to be nontoxic,[1]; C57Bl/6 mice,25 mg/kg
same,normal tissue toxic effect,[1]; low dose 17AAG 25 mg/kg body weight,did not show any normal tissue toxic effect
C[C@H](NC(=O)/C(C#N)=C/c1cccc(Br)n1)c1ccccc1 [WP1066],inducing cell death,[2],superior effect on inducing cell death
CNC(=O)c1ccc(N2C(=S)N(c3cnc(C#N)c(C(F)(F)F)c3)C(=O)C23CCC3)cc1F [apalutamide],clonogenicity (colonies),"TPSA23 tumor cells; 5 μM apalutamide in combination with LOFU, vs apalutamide or LOFU alone",significantly fewer colonies
same,clonogenicity,TPSA23 tumor cells; 10 μM apalutamide alone,significant reduction in clonogenicity
same,clonogenicity,TPSA23 tumor cells; 10 μM apalutamide in combination with LOFU,still more effective
